In PMC5218480 (PLoS ONE, 2017):

Tested on: MV-4-11 cells
Assay: Gene expression microarray analysis (Affymetrix PrimeView) and GSEA
Type: cell-based, human
Parameters: RFU PODN (11730768_x_at) / Fold change /veh PODN (11730768_x_at) / RFU LINC00158 (11744669_a_at) / Fold change /veh LINC00158 (11744669_a_at) / RFU DUSP10 (11751237_a_at) / Fold change /veh DUSP10 (11751237_a_at) / RFU ID3 (11757404_x_at) / Fold change /veh ID3 (11757404_x_at) / RFU PLEKHG5 (11737974_s_at) / Fold change /veh PLEKHG5 (11737974_s_at) / RFU LRRC4B (11730491_at) / Fold change /veh LRRC4B (11730491_at) / RFU GIMAP4 (11747438_a_at) / Fold change /veh GIMAP4 (11747438_a_at) / RFU KRT8 (11758183_x_at) / Fold change /veh KRT8 (11758183_x_at) / RFU CNN1 (11734310_a_at) / Fold change /veh CNN1 (11734310_a_at) / RFU VPS37D (11726825_at) / Fold change /veh VPS37D (11726825_at) / RFU C10orf10 (11716522_x_at) / Fold change /veh C10orf10 (11716522_x_at) / RFU KIR2DL2 /// KIR2DL4 /// KIR2DL5A /// KIR2DL5B /// KIR2DS1 /// KIR2DS2 /// KIR2DS3 /// KIR2DS4 /// KIR3DL3 /// KIR3DL3 /// KIR3DS1 (11738374_at) / Fold change /veh KIR2DL2 /// KIR2DL4 /// KIR2DL5A /// KIR2DL5B /// KIR2DS1 /// KIR2DS2 /// KIR2DS3 /// KIR2DS4 /// KIR3DL3 /// KIR3DL3 /// KIR3DS1 (11738374_at) / RFU C1QL1 (11718748_at) / Fold change /veh C1QL1 (11718748_at) / RFU TMPRSS4 (11747572_a_at) / Fold change /veh TMPRSS4 (11747572_a_at) / RFU HAMP (11756126_x_at) / Fold change /veh HAMP (11756126_x_at) / RFU RNFT2 (11725882_a_at) / Fold change /veh RNFT2 (11725882_a_at) / RFU NR4A2 (11747474_a_at) / Fold change /veh NR4A2 (11747474_a_at) / RFU ABCC12 (11746883_a_at) / Fold change /veh ABCC12 (11746883_a_at) / RFU TMEM136 (11760407_x_at) / Fold change /veh TMEM136 (11760407_x_at) / RFU CLDN22 /// WWC2 (11732394_at) / Fold change /veh CLDN22 /// WWC2 (11732394_at) / RFU HLA-DPB1 (11760878_x_at) / Fold change /veh HLA-DPB1 (11760878_x_at) / RFU SPINT1 (11716480_a_at) / Fold change /veh SPINT1 (11716480_a_at) / RFU GAP43 (11754022_s_at) / Fold change /veh GAP43 (11754022_s_at) / RFU A4GNT (11735810_at) / Fold change /veh A4GNT (11735810_at) / RFU PRB3 (11715151_x_at) / Fold change /veh PRB3 (11715151_x_at) / RFU TUBB4B (11761932_at) / Fold change /veh TUBB4B (11761932_at) / RFU CAPN14 (11732068_a_at) / Fold change /veh CAPN14 (11732068_a_at) / RFU TMCC2 (11721928_a_at) / Fold change /veh TMCC2 (11721928_a_at) / RFU IRGQ (11745062_a_at) / Fold change /veh IRGQ (11745062_a_at) / RFU FAM174B (11720279_a_at) / Fold change /veh FAM174B (11720279_a_at) / RFU TMPRSS4 (11748680_a_at) / Fold change /veh TMPRSS4 (11748680_a_at) / RFU FAM212B (11763350_a_at) / Fold change /veh FAM212B (11763350_a_at) / RFU PLEKHG5 (11743358_a_at) / Fold change /veh PLEKHG5 (11743358_a_at) / RFU ZSCAN30 (11745921_a_at) / Fold change /veh ZSCAN30 (11745921_a_at) / RFU CMKLR1 (11741424_a_at) / Fold change /veh CMKLR1 (11741424_a_at) / RFU LOC101060620 /// MAPK8IP1 (11723275_at) / Fold change /veh LOC101060620 /// MAPK8IP1 (11723275_at) / RFU SPTSSB (11747773_x_at) / Fold change /veh SPTSSB (11747773_x_at) / RFU PRSS12 (11739890_at) / Fold change /veh PRSS12 (11739890_at) / RFU BIN1 (11741810_x_at) / Fold change /veh BIN1 (11741810_x_at) / RFU WNT11 (11732464_a_at) / Fold change /veh WNT11 (11732464_a_at) / RFU C10orf10 (11716521_a_at) / Fold change /veh C10orf10 (11716521_a_at) / RFU C5orf56 (11738089_at) / Fold change /veh C5orf56 (11738089_at) / RFU CYB561 (11721691_x_at) / Fold change /veh CYB561 (11721691_x_at) / RFU ANKRD19P (11752326_a_at) / Fold change /veh ANKRD19P (11752326_a_at) / RFU OR2T12 /// OR2T33 /// OR2T8 (11738714_s_at) / Fold change /veh OR2T12 /// OR2T33 /// OR2T8 (11738714_s_at) / RFU VCAN (11748164_a_at) / Fold change /veh VCAN (11748164_a_at) / RFU JSRP1 (11732532_at) / Fold change /veh JSRP1 (11732532_at) / RFU KRTAP10-11 (11738290_x_at) / Fold change /veh KRTAP10-11 (11738290_x_at) / RFU MYO3A (11730013_a_at) / Fold change /veh MYO3A (11730013_a_at) / RFU EBF3 (11725865_a_at) / Fold change /veh EBF3 (11725865_a_at) / RFU CAMK2N1 (11719241_x_at) / Fold change /veh CAMK2N1 (11719241_x_at) / RFU C5orf56 (11738088_a_at) / Fold change /veh C5orf56 (11738088_a_at) / RFU OLFML3 (11715873_a_at) / Fold change /veh OLFML3 (11715873_a_at) / RFU LOC100653217 /// NTM (11731650_a_at) / Fold change /veh LOC100653217 /// NTM (11731650_a_at) / RFU MAPK11 (11762145_a_at) / Fold change /veh MAPK11 (11762145_a_at) / RFU FIZ1 (11724087_x_at) / Fold change /veh FIZ1 (11724087_x_at) / RFU OASL (11726364_x_at) / Fold change /veh OASL (11726364_x_at) / RFU SOX15 (11748057_x_at) / Fold change /veh SOX15 (11748057_x_at) / RFU CD79A (11719716_a_at) / Fold change /veh CD79A (11719716_a_at) / RFU HIST1H1D (11736915_at) / Fold change /veh HIST1H1D (11736915_at) / RFU CASKIN2 (11723855_a_at) / Fold change /veh CASKIN2 (11723855_a_at) / RFU LOC730098 (11760151_x_at) / Fold change /veh LOC730098 (11760151_x_at) / RFU OR4N2 (11742367_at) / Fold change /veh OR4N2 (11742367_at) / RFU PRRT2 (11749266_a_at) / Fold change /veh PRRT2 (11749266_a_at) / RFU SNX32 (11753110_a_at) / Fold change /veh SNX32 (11753110_a_at) / RFU CDHR5 (11726645_a_at) / Fold change /veh CDHR5 (11726645_a_at) / RFU RCAN1 (11760418_a_at) / Fold change /veh RCAN1 (11760418_a_at) / RFU FAM167A (11723789_a_at) / Fold change /veh FAM167A (11723789_a_at) / RFU FAM26E (11764081_at) / Fold change /veh FAM26E (11764081_at) / RFU ISYNA1 (11749810_s_at) / Fold change /veh ISYNA1 (11749810_s_at) / RFU ACY1 (11761880_at) / Fold change /veh ACY1 (11761880_at) / RFU 11764098_at / Fold change /veh 11764098_at / RFU SAMD14 (11745864_x_at) / Fold change /veh SAMD14 (11745864_x_at) / RFU NPB (11741838_a_at) / Fold change /veh NPB (11741838_a_at) / RFU TMPRSS6 (11731388_a_at) / Fold change /veh TMPRSS6 (11731388_a_at) / RFU KRTAP10-2 (11738614_at) / Fold change /veh KRTAP10-2 (11738614_at) / RFU ARHGAP8 /// PRR5-ARHGAP8 (11727945_x_at) / Fold change /veh ARHGAP8 /// PRR5-ARHGAP8 (11727945_x_at) / RFU KRTAP5-7 /// NADSYN1 (11734609_at) / Fold change /veh KRTAP5-7 /// NADSYN1 (11734609_at) / RFU RASL12 (11751679_a_at) / Fold change /veh RASL12 (11751679_a_at) / RFU CDKN2B (11736163_a_at) / Fold change /veh CDKN2B (11736163_a_at) / RFU PRF1 (11729649_at) / Fold change /veh PRF1 (11729649_at) / RFU, ZNF638 /// ZNF638-IT1 / Fold change vs veh, ZNF638 /// ZNF638-IT1 / RFU, PANK3 / Fold change vs veh, PANK3 / RFU, SH3YL1 / Fold change vs veh, SH3YL1 / RFU, ZEB2 / Fold change vs veh, ZEB2 / RFU, NRIP1 / Fold change vs veh, NRIP1 / RFU, PTTG1IP / Fold change vs veh, PTTG1IP / RFU, CAPN2 / Fold change vs veh, CAPN2 / RFU, MED14 / Fold change vs veh, MED14 / RFU, SNORA58 / Fold change vs veh, SNORA58 / RFU, C1orf63 / Fold change vs veh, C1orf63 / RFU, LRRFIP1 / Fold change vs veh, LRRFIP1 / RFU, NDUFAF7 / Fold change vs veh, NDUFAF7 / RFU, SLC12A2 / Fold change vs veh, SLC12A2 / RFU, IBTK / Fold change vs veh, IBTK / RFU, ESF1 / Fold change vs veh, ESF1 / Fold change vs veh, TMEM50B / RFU, TAOK1 / Fold change vs veh, TAOK1 / RFU, ACBD3 / Fold change vs veh, ACBD3 / RFU, TMA16 / Fold change vs veh, TMA16 / RFU, RWDD3 / Fold change vs veh, RWDD3 / RFU, BCAT1 / Fold change vs veh, BCAT1 / RFU, EDEM3 / Fold change vs veh, EDEM3 / RFU, TMEM33 / Fold change vs veh, TMEM33 / RFU, WDR75 / Fold change vs veh, WDR75 / RFU, AHCTF1 / Fold change vs veh, AHCTF1 / RFU, TFRC / Fold change vs veh, TFRC / RFU, ZDHHC17 / Fold change vs veh, ZDHHC17 / RFU, NOM1 / Fold change vs veh, NOM1 / RFU, ARL8B / Fold change vs veh, ARL8B / RFU, ZBTB11 / Fold change vs veh, ZBTB11 / RFU, TAMM41 / Fold change vs veh, TAMM41 / RFU, KIAA1704 /// LOC100996395 / Fold change vs veh, KIAA1704 /// LOC100996395 / RFU, ING1 / Fold change vs veh, ING1 / RFU, TRMT61B / Fold change vs veh, TRMT61B / RFU, FUBP3 / Fold change vs veh, FUBP3 / RFU, TP53 / Fold change vs veh, TP53 / RFU, TNKS2 / Fold change vs veh, TNKS2 / RFU, ZFP14 / Fold change vs veh, ZFP14 / RFU, ACTR2 / Fold change vs veh, ACTR2 / RFU, PPP3R1 / Fold change vs veh, PPP3R1 / RFU, PIK3R1 / Fold change vs veh, PIK3R1 / RFU, HNRNPA1 / Fold change vs veh, HNRNPA1 / RFU, RNF170 / Fold change vs veh, RNF170 / RFU, ZNF28 / Fold change vs veh, ZNF28 / RFU, RNGTT / Fold change vs veh, RNGTT / RFU, OGT / Fold change vs veh, OGT / RFU, BRD1 / Fold change vs veh, BRD1 / RFU, MARS / Fold change vs veh, MARS / RFU, ZNF655 / Fold change vs veh, ZNF655 / RFU, FAHD1 / Fold change vs veh, FAHD1 / RFU, BDP1 / Fold change vs veh, BDP1 / RFU, LRRCC1 / Fold change vs veh, LRRCC1 / RFU, ARID1A / Fold change vs veh, ARID1A / RFU, ZNF146 / Fold change vs veh, ZNF146 / RFU, ZNF330 / Fold change vs veh, ZNF330 / RFU, GPN3 / Fold change vs veh, GPN3 / RFU, C9orf123 / Fold change vs veh, C9orf123 / RFU, N4BP2L2 / Fold change vs veh, N4BP2L2 / RFU, ARFIP1 / Fold change vs veh, ARFIP1 / RFU, FAM179B / Fold change vs veh, FAM179B / RFU, BCL10 / Fold change vs veh, BCL10 / RFU, UHRF1BP1L / Fold change vs veh, UHRF1BP1L / RFU, BET1 / Fold change vs veh, BET1 / RFU, CNOT2 / Fold change vs veh, CNOT2 / RFU, ZNF268 / Fold change vs veh, ZNF268 / Fold change vs veh, ZNF507 / RFU, DGCR2 / Fold change vs veh, DGCR2 / RFU, WDSUB1 / Fold change vs veh, WDSUB1 / Fold change vs veh, HSP90B1 /// MIR3652 / RFU, ADSS / Fold change vs veh, ADSS / RFU, GK / Fold change vs veh, GK / RFU, ZNF148 / Fold change vs veh, ZNF148 / RFU, TAF9 / Fold change vs veh, TAF9 / RFU, SLC1A5 / Fold change vs veh, SLC1A5 / RFU, SLMO2 / Fold change vs veh, SLMO2 / RFU, ABCC4 / Fold change vs veh, ABCC4 / RFU, LOC101060439 /// RAP1B / Fold change vs veh, LOC101060439 /// RAP1B / RFU, RFX7 / Fold change vs veh, RFX7 / RFU, GTPBP10 / Fold change vs veh, GTPBP10 / RFU, CNEP1R1 / Fold change vs veh, CNEP1R1 / RFU, BIVM-ERCC5 /// ERCC5 / Fold change vs veh, BIVM-ERCC5 /// ERCC5 / RFU, ILF3 / Fold change vs veh, ILF3 / RFU 11762660_at / Fold change /veh 11762660_at / RFU VCAN (11757783_s_at) / Fold change /veh VCAN (11757783_s_at) / RFU DDX43 (11728927_at) / Fold change /veh DDX43 (11728927_at) / RFU KRT8 (11758188_x_at) / Fold change /veh KRT8 (11758188_x_at) / RFU NKD1 (11759106_at) / Fold change /veh NKD1 (11759106_at) / RFU SRD5A1 (11742802_a_at) / Fold change /veh SRD5A1 (11742802_a_at) / RFU TPSAB1 /// TPSB2 (11721975_s_at) / Fold change /veh TPSAB1 /// TPSB2 (11721975_s_at) / RFU GSTM3 (11746129_a_at) / Fold change /veh GSTM3 (11746129_a_at) / RFU IL23R (11737362_x_at) / Fold change /veh IL23R (11737362_x_at) / RFU TMEM51 (11727254_a_at) / Fold change /veh TMEM51 (11727254_a_at) / RFU PIWIL2 (11732686_x_at) / Fold change /veh PIWIL2 (11732686_x_at) / RFU ORM1 (11744905_x_at) / Fold change /veh ORM1 (11744905_x_at) / RFU CCDC152 (11743942_at) / Fold change /veh CCDC152 (11743942_at) / RFU ECM1 (11717891_a_at) / Fold change /veh ECM1 (11717891_a_at) / RFU IL23R (11748794_a_at) / Fold change /veh IL23R (11748794_a_at) / RFU TNFAIP8L3 (11732012_x_at) / Fold change /veh TNFAIP8L3 (11732012_x_at) / RFU MBOAT4 (11741988_at) / Fold change /veh MBOAT4 (11741988_at) / RFU 11764193_at / Fold change /veh 11764193_at / RFU TMEM53 (11763286_at) / Fold change /veh TMEM53 (11763286_at) / RFU MAGEB2 (11727129_at) / Fold change /veh MAGEB2 (11727129_at) / RFU TMEM200A (11744735_a_at) / Fold change /veh TMEM200A (11744735_a_at) / RFU CCDC152 (11751479_a_at) / Fold change /veh CCDC152 (11751479_a_at) / RFU FAM211A (11726209_a_at) / Fold change /veh FAM211A (11726209_a_at) / RFU RGS16 (11746705_a_at) / Fold change /veh RGS16 (11746705_a_at) / RFU VCAN (11755009_s_at) / Fold change /veh VCAN (11755009_s_at) / RFU RHOB (11743442_s_at) / Fold change /veh RHOB (11743442_s_at) / RFU RGS16 (11720943_a_at) / Fold change /veh RGS16 (11720943_a_at) / RFU RGS16 (11720944_at) / Fold change /veh RGS16 (11720944_at) / RFU, VPS4B / Fold change vs veh, VPS4B / RFU, CREB1 / Fold change vs veh, CREB1 / RFU, DNAJC13 / Fold change vs veh, DNAJC13 / RFU, GNAQ / Fold change vs veh, GNAQ / RFU, CDK5R1 / Fold change vs veh, CDK5R1 / RFU, ZRANB3 / Fold change vs veh, ZRANB3 / RFU, CUL4A / Fold change vs veh, CUL4A / RFU, CCNY / Fold change vs veh, CCNY / RFU, UFL1 / Fold change vs veh, UFL1 / RFU, COG3 / Fold change vs veh, COG3 / RFU, DIAPH2 / Fold change vs veh, DIAPH2 / RFU, SKA2 / Fold change vs veh, SKA2 / RFU, AFF3 / Fold change vs veh, AFF3 / RFU, LMF1 / Fold change vs veh, LMF1 / RFU, IPO11 / Fold change vs veh, IPO11 / RFU, DFFB / Fold change vs veh, DFFB / RFU, FOXP1 / Fold change vs veh, FOXP1 / RFU, CARD8 / Fold change vs veh, CARD8 / RFU, STRN3 / Fold change vs veh, STRN3 / RFU, ADK / Fold change vs veh, ADK / RFU, RASSF2 / Fold change vs veh, RASSF2 / RFU, WIPF1 / Fold change vs veh, WIPF1 / RFU, LARP1B / Fold change vs veh, LARP1B / RFU, RASA1 / Fold change vs veh, RASA1 / RFU, RB1 / Fold change vs veh, RB1 / RFU, PPFIA1 / Fold change vs veh, PPFIA1 / RFU, MAT2A / Fold change vs veh, MAT2A / RFU, CCT5 / Fold change vs veh, CCT5 / RFU, WDR92 / Fold change vs veh, WDR92 / RFU, CUX1 / Fold change vs veh, CUX1 / RFU, TTC7A / Fold change vs veh, TTC7A / RFU, TMEM135 / Fold change vs veh, TMEM135 / RFU, DEPTOR / Fold change vs veh, DEPTOR / RFU, CPM / Fold change vs veh, CPM / RFU, DNAJB6 / Fold change vs veh, DNAJB6 / RFU, CACNA2D3 / Fold change vs veh, CACNA2D3 / RFU, DTX4 / Fold change vs veh, DTX4 / RFU, TFCP2 / Fold change vs veh, TFCP2 / RFU, GMCL1 /// GMCL1P1 / Fold change vs veh, GMCL1 /// GMCL1P1 / RFU, AEBP2 / Fold change vs veh, AEBP2 / RFU, SNHG1 /// SNORD22 /// SNORD25 /// SNORD26 /// SNORD27 /// SNORD28 /// SNORD29 /// SNORD31 / Fold change vs veh, SNHG1 /// SNORD22 /// SNORD25 /// SNORD26 /// SNORD27 /// SNORD28 /// SNORD29 /// SNORD31 / Fold change (Aza/veh), C12orf56 (ProbeSet 11735607_a_at) / Fold change (ACY-1035/veh), C12orf56 (ProbeSet 11735607_a_at) / Fold change (Aza/veh), FGFR1OP (ProbeSet 11751329_s_at) / Fold change (ACY-1035/veh), FGFR1OP (ProbeSet 11751329_s_at) / Fold change (Aza/veh), VPS36 (ProbeSet 11739960_a_at) / Fold change (ACY-1035/veh), VPS36 (ProbeSet 11739960_a_at) / RFU SYPL1 (11715823_x_at) / Fold change /veh SYPL1 (11715823_x_at) / RFU IGFBP7 (11715501_s_at) / Fold change /veh IGFBP7 (11715501_s_at) / RFU REEP3 (11722064_at) / Fold change /veh REEP3 (11722064_at) / RFU IGLL1 (11728026_x_at) / Fold change /veh IGLL1 (11728026_x_at): dose or concentration left out as unconfirmed
Details: ProbeSet 11722302_a_at; LIST B

## Nc1ccc(-c2cccs2)cc1NC(=O)c1ccc2c(c1)cc(C1CC1)n2CCN1CCOCC1 [ACY-1035]
  Fold change vs veh, LRRFIP1: 0.98
